Data set [1] has as its system AT cells (AT22, ATDM-1, ATDM-2). Description: Colony forming-efficiency assay, desferrioxamine/aspirin pretreatment then t-BOOH toxicity. The class given is cell-based, human. Particulars: for resistance to the toxic effects of t-BOOH exposure versus length of pretreatment / resistance to the toxic effects of t-BOOH versus concentration of pretreatment agent: AT22 cells; for resistance to the toxic effects of t-BOOH exposure versus length of pretreatment / resistance to t-BOOH toxicity (cell survival, percentage of untreated cells): desferrioxamine 100 μM, aspirin 0.3 mM; for resistance to the toxic effects of t-BOOH exposure versus length of pretreatment: FIG. 9; for resistance to the toxic effects of t-BOOH versus concentration of pretreatment agent: increasing concentrations of desferrioxamine or aspirin, FIG. 10A/10B; for resistance to t-BOOH toxicity (cell survival, percentage of untreated cells): pretreatment, increasing concentrations of t-BOOH, FIG. 8A. How it is done: (§1) Colony forming-efficiency experiments were performed as previously described (See R. E. Shackelford et al. The Ataxia telangiectasia Gene Product Is Required for Oxidative Stress-induced G1 and G2 Checkpoint Function in Human Fibroblasts, 276 J. BIOL. CHEM. 21951-21959 (2001)). In brief, exponentially growing cells were plated at 2,000 cells/100 mm tissue culture dish in 10 ml appropriate media, allowed to adhere 6 h, and treated 15 min with varying concentrations of t-BOOH or FeCl2 FeCl2, aspirin, diethylenetriaminepentaacetic acid (DTPA), hygromycin, and desferrioxamine mesylate were obtained from Sigma Chemical Corp (St. Louis, Mo.). Fetal calf serum (FCS) and Dulbecco's Modified Eagle's Medium (DMEM) were obtained from Invitrogen (Rockville, Md.). Culture dishes were obtained from Becton Dickinson (Franklin Lakes, N.J.).
Following treatment, the pates were washed 2× with media, the media replaced, and colonies fixed and stained after 14 days in culture by water: methanol addition (1:1) containing crystal violet (1 g/L). Colonies consisting of cell clusters containing greater than 50 cells were counted under a dissecting microscope. Unless otherwise noted, where desferrioxamine and/or aspirin pretreatment was employed, the cells were plated in desferrioxamine, aspirin, or desferrioxamine and aspirin, and allowed to adhere for 6 h. The plates were then washed 4× with media and treated with t-BOOH as above. Data indicates survival as a percentage of untreated cells. The AT22 and VA13 tumor cell lines were used at passages 20–40. The primary NHF1, ATDM-1, and ATDM-2 cell strains were used at passages 6–18. pEBS7 and pEBS7-YZ5 cells were used at passages 15–20. All experiments were done at least twice in triplicate. Standard deviations (error bars) were calculated from each experimental data point divided by the mean untreated value and averaged between experiments to obtain the mean standard deviation. (FIGS. 6–10B).

In data set [2] the test system is AT cells (AT22). Nature of the data set: Colony forming-efficiency assay, cell survival with increasing CuCl2. Particulars: AT22 versus VA13 cells, increasing concentrations of CuCl2; FIG. 4A. The class given is cell-based, human. The protocol:
as §1, with “[…],” for “and treated 15 min with varying concentrations of t-BOOH or FeCl2 FeCl2,”
Following treatment, the pates were washed 2× with media, the media replaced, and colonies fixed and stained after 14 days in culture by water: methanol addition (1:1) containing crystal violet (1 g/L). Colonies consisting of cell clusters containing greater than 50 cells were counted under a dissecting microscope. […] Standard deviations (error bars) were calculated from each experimental data point divided by the mean untreated value and averaged between experiments to obtain the mean standard deviation. […]

Data set [3] relates to normal cells (VA13, NHF1). Description: Colony forming-efficiency assay, apoferritin/quercetin pretreatment then t-BOOH toxicity. Type of data set: cell-based, human. As to conditions: 6 h pretreatment with increasing concentrations, then 10 mM t-BOOH, FIG. 12A, 14A. The protocol: (§2) Preparation of cells is as described previously in Example 1. Colony forming-efficiency experiments were performed as previously described (See R. E. Shackelford et al. The Ataxia telangiectasia Gene Product Is Required for Oxidative Stress-induced G1 and G2 Checkpoint Function in Human Fibroblasts, 276 J. BIOL. CHEM. 21951–21959 (2001)). In brief, exponentially growing cells were plated at 2,000 cells/100 mm tissue culture dish in 10 ml appropriate media with an added iron chelating agent and cultured for 14 days. The resulting colonies were fixed and stained after 14 days culture by water:methanol addition (1:1) containing crystal violet (1 g/L). Colonies consisting of cell clusters containing greater than 50 cells were counted under a dissecting microscope. For experiments involving apoferritin or quercetin pre-exposure on t-BOOH resistance, the cells were allowed to adhere 6 h in increasing aopferritin or quercetin concentrations, washed 4× with 3 ml media, treated with 10 mM t-BOOH, washed 1× with 3 ml media, and allowed to grow for 14 days in 10 ml appropriate media. Data indicates survival as a percentage of untreated cells. The AT22 and VA13 tumor cell lines were used at passages 20–40. The primary NHF1, ATDM-1, and ATDM-2 cell strains were used at passages 6–19. All experiments were done at least twice in triplicate. Standard deviations (error bars) were calculated from each experimental data point divided by the mean untreated value and averaged between triplicate experiments to obtain the mean standard deviation. (FIGS. 11A–14C).

For data set [4], the system named is AT cells (AT22, ATDM-1, ATDM-2). The data set is described as above. As to conditions: 6 h pretreatment with increasing concentrations, then 10 mM t-BOOH, FIG. 12A, 14A. The class given is cell-based, human. How it is done:
as §2

Data set [5] has the same test system. Description: Colony forming-efficiency assay, long-term culture with iron chelating agent or quercetin. Particulars: long-term culture (14 days) with increasing concentrations; FIG. 11A, 13A. Type of data set: cell-based, human. How it is done: as §2, with “The AT22 and VA13 tumor cell lines were used at passages 20–40. The primary NHF1, ATDM-1, and ATDM-2 cell strains were used at passages 6–19. All experiments were done at least twice in triplicate.” left out, “(FIGS. 11A–14C).” left out

Data set [6] relates to AT cells. Particulars: AT cells treated with the antioxidant; Gatei et al. 2001; cited from earlier work.
The test system of data set [7] is ATDM-1, and ATDM-2 cells. Description: Mitotic delay assay (mitotic index after FeCl2 treatment). The class given is cell-based, human. Particulars: increasing concentrations of FeCl2, 15 min treatment, 2 h culture; NHF1 cells for comparison; fluorescence microscopy; FIG. 3. How it is done:
Mitotic delay assays were performed as previously described (See R. E. Shackelford et al. The Ataxia telangiectasia Gene Product Is Required for Oxidative Stress-induced G1 and G2 Checkpoint Function in Human Fibroblasts, 276 J. BIOL. CHEM. 21951–21959 (2001)). In brief, cells were plated onto 100 mm tissue culture plates and incubated 48–72 h (to approximately 50% confluency). The cells were then treated with FeCl2 for 15 m as in the colony forming-efficiency assay, washed 2× with media, cultured 2 h, and the media was removed. The cells were fixed in 5 ml cold methanol for 10 min and air-dried. The cells were stained with 0.2 μg/ml 4′,6-diamidino-2-phenylindole (DAPI) in water and examined by fluorescence microscopy. The percentage of mitotic cells (mitotic delay) was determined by counts of 5,000 cells. Mitotic delay experiments were performed in triplicate and the standard deviations were calculated as in the colony forming-efficiency assays. (FIG. 3).

Structures can show the parent of a compound that is named as a salt.

Consider `CC(=O)Oc1ccccc1C(=O)O` [aspirin], for which, in data set [1], the “resistance to the toxic effects of t-BOOH exposure versus length of pretreatment” value is on record as “increases with longer exposure”; the “resistance to the toxic effects of t-BOOH versus concentration of pretreatment agent” value was “increase the resistance”; the “resistance to t-BOOH toxicity (cell survival, percentage of untreated cells)” value is “increased resistance to t-BOOH toxicity”.

As to `CC(=O)N(O)CCCCCNC(=O)CCC(=O)N(O)CCCCCNC(=O)CCC(=O)N(O)CCCCCN` [desferrioxamine, desferrioxamine mesylate], in data set [1], the “resistance to the toxic effects of t-BOOH exposure versus length of pretreatment” value was “increases with longer exposure”; the “resistance to the toxic effects of t-BOOH versus concentration of pretreatment agent” value was “increase the resistance”; the “resistance to t-BOOH toxicity (cell survival, percentage of untreated cells)” value is listed as “increased resistance to t-BOOH toxicity”.

For the compound `[Cl][Cu][Cl]` [CuCl2], the “cell survival (percentage of untreated cells), sensitivity to CuCl2” value in data set [2] is listed as “increased sensitivity”.

In the case of apoferritin, the “resistance to t-BOOH toxicity (cell survival, percentage of untreated cells)” value in data set [3] and in data set [4] was “increased resistance to t-BOOH toxicity” in each case. Besides, the “plating efficiency (cell survival, percentage of untreated cells)” value in data set [5] is “increases the plating efficiency”.

As for `O=C(O)CCCCC1CCSS1` (stereo not drawn) [a-lipoic acid], the genotoxic stress-induced proteins result in data set [6] is listed as “lowered”.

Turning to `O=c1c(O)c(-c2ccc(O)c(O)c2)oc2cc(O)cc(O)c12` [quercetin], the “resistance to t-BOOH toxicity (cell survival, percentage of untreated cells)” value in data set [3] and in data set [4] was “increased resistance to t-BOOH toxicity” each time. For the same compound, the “plating efficiency (cell survival, percentage of untreated cells)” value in data set [5] is given as “increases the plating efficiency”.

As for `[Cl][Fe][Cl]` [FeCl2], in data set [7], the “mitotic activity (percentage of the mitotic index of the mock-treated population), G2 checkpoint” value is “induces a pATM-dependent G2 checkpoint”.

The record behind these values is US7176239B2, “Methods and compositions for treatment of Ataxia-telangeictasia” (priority 2003, dated 2007).
